In paper PMC12299890 (Pharmaceuticals, 2025):
“Also recorded” adds a separate entry of the source.

Key:
[1] = cited from earlier work
[2] = Pharmacokinetics of MI in Wistar rat model after oral administration (Antonowski and co-workers); type: in vivo; details: rat serum; MI data of ref 30 vs SCI of this study
Description: Antonowski and co-workers examined the PK of MI in Wistar rat models.
Bioavailability studies in animal models are a critical step in evaluating how much of a substance is absorbed and becomes available in the body. A rat model is excellent to maximize the relevance of SCI to human health. Antonowski and co-workers used a rat model for the PK analysis of MI. In this study, a dose of 20 mg/kg MI was orally administrated to rats and afterwards, the serum concentration of MI was measured. […] Then, the concentration of MI began to decrease immediately. […] Studies should be extended to include intraperitoneal injection or direct injection into blood vessels to determine the bioactivity of these INSs.

[3] = design: method as in PMID 16250252; details: male Sprague-Dawley rats; cited from earlier work

AUC of MI compared with SCI [2]	SMILES	Side effects of MI administration ([1]; oral MI)	Time of highest MI serum concentration (Cmax) after oral administration ([1]; serum, oral 20 mg/kg MI)	MI level 24 h after administration ([1]; serum, oral MI)	Relative bioavailability of oral administration compared to intraperitoneal injection [3]
lower than for SCI	O[C@H]1[C@H](O)[C@@H](O)[C@H](O)[C@@H](O)[C@H]1O [MI, myo-inositol]	no serious side effects	first hour	still higher than before the administration; also recorded: still higher than before the supplementation	
	O=C(O)[C@H]1O[C@@H](Oc2cc3oc(-c4ccc(O)cc4)cc(=O)c3c(O)c2O)[C@H](O)[C@@H](O)[C@@H]1O [scutellarin]				very low
